Measured values published in patent US5462935A, “Cephalosporin compounds” (Lucky Limited, priority 1990, dated 1995).
Converted amounts (≈) assume the structure as drawn.

Key:
[1] = system: ATCC 12228; assay: minimal inhibitory concentration, two-fold agar dilution; type: cell-based; details: Staphylococcus faecalis, ATCC12228, 20 h
Description: (§1) These NIC values were taken by employing a two-fold dilution method: that is, two-fold serial dilutions of each of the test compounds were made and dispersed in a Muller-Hinton agar medium; 2 μl of the standard test strain which had the 10^7 CFU (Colony Forming Unit) per ml was inoculated on the medium; and these were incubated at 37° C. for 20 hours.

[2] = system: Acinetobacter calcoaceticus ATCC 15473; assay: as above; type: cell-based; details: ATCC15473, Muller-Hinton agar, 37° C., 20 hours
Description: as §1

[3] = system: Bacillus cereus ATCC 11778; assay: as above; type: cell-based; details: Bacillus cereus, ATCC11778, 20 h
Description: as §1

[4] = system: Bacillus megaterium ATCC 9885; assay: as above; type: cell-based; details: Priestia megaterium, ATCC9885, 20 h
Description: as §1

[5] = system: Citrobacter freundii ATCC 8090; assay: as above; type: cell-based; details: ATCC8090, Muller-Hinton agar, 37° C., 20 hours
Description: as §1

[6] = system: Enterobacter aerogenes ATCC 29751; assay: as above; type: cell-based; details: Klebsiella aerogenes, ATCC29751, 20 h
Description: as §1

[7] = system: Enterobacter cloacae ATCC 27508; assay: as above; type: cell-based; details: ATCC27508, Muller-Hinton agar, 37° C., 20 hours
Description: as §1

[8] = system: Escherichia coli ATCC 10536; assay: as above; type: cell-based; details: ATCC10536, Muller-Hinton agar, 37° C., 20 hours
Description: as §1

[9] = system: Escherichia coli ATCC 25922; assay: as above; type: cell-based; details: ATCC25922, Muller-Hinton agar, 37° C., 20 hours
Description: as §1

[10] = system: Klebsiella pneumoniae ATCC 10031; assay: as above; type: cell-based; details: ATCC10031, Muller-Hinton agar, 37° C., 20 hours
Description: as §1

[11] = system: Micrococcus luteus ATCC 9341; assay: as above; type: cell-based; details: ATCC9341, Muller-Hinton agar, 37° C., 20 hours
Description: as §1

[12] = system: Morganella morganii ATCC 8076h; assay: as above; type: cell-based; details: ATCC8076H, 20 h
Description: as §1

[13] = system: Proteus mirabilis ATCC 25933; assay: as above; type: cell-based; details: ATCC25933, Muller-Hinton agar, 37° C., 20 hours
Description: as §1

[14] = system: Proteus vulgaris ATCC 6059; assay: as above; type: cell-based; details: ATCC6059, Muller-Hinton agar, 37° C., 20 hours
Description: as §1

[15] = system: Providencia rettgeri ATCC 9250; assay: as above; type: cell-based; details: ATCC9250, Muller-Hinton agar, 37° C., 20 hours
Description: as §1

[16] = system: Pseudomonas aeruginosa ATCC 25619; assay: as above; type: cell-based; details: ATCC25619, Muller-Hinton agar, 37° C., 20 hours
Description: as §1

[17] = system: Pseudomonas aerugionsa ATCC 10145; assay: as above; type: cell-based; details: ATCC10145, Muller-Hinton agar, 37° C., 20 hours
Description: as §1

[18] = system: Pseudomonas aerugionsa ATCC 27853; assay: as above; type: cell-based; details: ATCC27853, Muller-Hinton agar, 37° C., 20 hours
Description: as §1

[19] = system: Salmonella typhimurium ATCC 14028; assay: as above; type: cell-based; details: Salmonella enterica, Muller-Hinton agar, 37° C., 20 hours
Description: as §1

[20] = system: Serratia marcescens ATCC 27117; assay: as above; type: cell-based; details: ATCC27117, Muller-Hinton agar, 37° C., 20 hours
Description: as §1

[21] = system: Shigella flexneri ATCC 11836; assay: as above; type: cell-based; details: ATCC11836, Muller-Hinton agar, 37° C., 20 hours
Description: as §1

[22] = system: Shigella sonnei ATCC 11060; assay: as above; type: cell-based; details: ATCC11060, Muller-Hinton agar, 37° C., 20 hours
Description: as §1

[23] = system: Staphylococcus aureus ATCC 6638p; assay: as above; type: cell-based; details: ATCC6638P, 20 h
Description: as §1

[24] = system: Staphylococcus epidermidis ATCC 10537; assay: as above; type: cell-based; details: ATCC10537, Muller-Hinton agar, 37° C., 20 hours
Description: as §1

[25] = system: Streptococcus faecalis ATCC 29212; assay: as above; type: cell-based; details: Enterococcus faecalis, ATCC29212, Muller-Hinton agar, 37° C., 20 hours
Description: as §1

[26] = acute toxicity test, intravenous; details: mouse, in vivo, ICR mice, observed for 14 days
Excerpt: The results are shown in the last row of Table 2.

SMILES	MIC [1] [µg/mL]	MIC [2] [µg/mL]	MIC [3] [µg/mL]	MIC [4] [µg/mL]	MIC [5] [µg/mL]	MIC [6] [µg/mL]	MIC [7] [µg/mL]	MIC [8] [µg/mL]	MIC [9] [µg/mL]	MIC [10] [µg/mL]	MIC [11] [µg/mL]	MIC [12] [µg/mL]	MIC [13] [µg/mL]	MIC [14] [µg/mL]	MIC [15] [µg/mL]	MIC [16] [µg/mL]	MIC [17] [µg/mL]	MIC [18] [µg/mL]	MIC [19] [µg/mL]	MIC [20] [µg/mL]	also measured
CC[n+]1c(N)cc(N)nc1SCC1=C(C(=O)[O-])N2C(=O)C(NC(=O)/C(=N\O[C@H](C)C(=O)O)c3csc(N)n3)[C@H]2SC1 (stereo partly drawn) [I-R-3, 7-[(Z)-2-(2-aminothiazol-4-yl)-2-[(R)-1-carboxyeth-1-oxyimino]acetamido]-3-[(4,6-diamino-1-ethylpyrimidinium-2-yl)thiomethyl]-3-cephem-4-carboxylate]	1 (≈ 1.6 µM)	4 (≈ 6.41 µM)	128 (≈ 205 µM)	1 (≈ 1.6 µM)	0.063 (≈ 0.101 µM)	0.5 (≈ 0.802 µM)	0.016 (≈ 0.0257 µM)	0.063 (≈ 0.101 µM)	0.063 (≈ 0.101 µM)	0.031 (≈ 0.0497 µM)	0.25 (≈ 0.401 µM)	≤ 0.008	0.031 (≈ 0.0497 µM)	0.031 (≈ 0.0497 µM)	≤ 0.008	1 (≈ 1.6 µM)	2 (≈ 3.21 µM)	1 (≈ 1.6 µM)	0.13 (≈ 0.208 µM)	0.063 (≈ 0.101 µM)	MIC [21]: 0.031 µg/mL (≈ 0.0497 µM); MIC [22]: 0.031 µg/mL (≈ 0.0497 µM); MIC [23]: 2 µg/mL (≈ 3.21 µM); MIC [24]: 2 µg/mL (≈ 3.21 µM); MIC [25]: > 128 µg/mL; LD50 at 336 h [26]: > 3000 mg/kg
CCC[n+]1c(N)cc(N)nc1SCC1=C(C(=O)[O-])N2C(=O)C(NC(=O)/C(=N\O[C@H](C)C(=O)O)c3csc(N)n3)[C@H]2SC1 (stereo partly drawn) [I-R-4, 7-[(Z)-2-(2-aminothiazol-4-yl)-2-[(R)-1-carboxyeth-1-oxyimino]acetamido]-3-[(4,6-diamino-1-propylpyrimidinium-2-yl)thiomethyl]-3-cephem-4-carboxylate]	1 (≈ 1.57 µM)	8 (≈ 12.5 µM)	64 (≈ 100 µM)	0.5 (≈ 0.784 µM)	0.063 (≈ 0.0988 µM)	1 (≈ 1.57 µM)	0.016 (≈ 0.0251 µM)	0.063 (≈ 0.0988 µM)	0.063 (≈ 0.0988 µM)	0.063 (≈ 0.0988 µM)	0.5 (≈ 0.784 µM)	≤ 0.008	0.063 (≈ 0.0988 µM)	0.063 (≈ 0.0988 µM)	≤ 0.008	1 (≈ 1.57 µM)	4 (≈ 6.27 µM)	2 (≈ 3.14 µM)	0.25 (≈ 0.392 µM)	0.13 (≈ 0.204 µM)	MIC [21]: 0.031 µg/mL (≈ 0.0486 µM); MIC [22]: 0.063 µg/mL (≈ 0.0988 µM); MIC [23]: 2 µg/mL (≈ 3.14 µM); MIC [24]: 2 µg/mL (≈ 3.14 µM); MIC [25]: > 128 µg/mL; LD50 at 336 h [26]: > 3000 mg/kg
C[C@@H](O/N=C(\C(=O)NC1C(=O)N2C(C(=O)[O-])=C(CSc3nc(N)cc(N)[n+]3-c3ccccc3)CSC12)c1csc(N)n1)C(=O)O (stereo partly drawn) [I-R-5, 7-[(Z)-2-(2-aminothiazol-4-yl)-2-[(R)-1-carboxyeth-1-oxyimino]acetamido]-3-[(4,6-diamino-1'-phenylpyrimidinium-2-yl)thiomethyl]-3-cephem-4-carboxylate]	2 (≈ 2.98 µM)	16 (≈ 23.8 µM)	64 (≈ 95.3 µM)	0.5 (≈ 0.744 µM)	0.13 (≈ 0.194 µM)	1 (≈ 1.49 µM)	0.031 (≈ 0.0461 µM)	0.13 (≈ 0.194 µM)	0.25 (≈ 0.372 µM)	0.063 (≈ 0.0938 µM)	0.25 (≈ 0.372 µM)	≤ 0.008	0.063 (≈ 0.0938 µM)	0.063 (≈ 0.0938 µM)	≤ 0.008	2 (≈ 2.98 µM)	8 (≈ 11.9 µM)	4 (≈ 5.95 µM)	0.5 (≈ 0.744 µM)	0.5 (≈ 0.744 µM)	MIC [21]: 0.063 µg/mL (≈ 0.0938 µM); MIC [22]: 0.25 µg/mL (≈ 0.372 µM); MIC [23]: 4 µg/mL (≈ 5.95 µM); MIC [24]: 2 µg/mL (≈ 2.98 µM); MIC [25]: > 128 µg/mL; LD50 at 336 h [26]: > 2000 mg/kg
Cc1c(N)nc(SCC2=C(C(=O)[O-])N3C(=O)C(NC(=O)/C(=N\O[C@H](C)C(=O)O)c4csc(N)n4)[C@H]3SC2)[n+](N)c1N (stereo partly drawn) [I-R-7, 7-[(Z)-2-(2-aminothiazol-4-yl)-2-[(R)-1-carboxyeth-1-oxyimino]acetamido]-3-[(5-methyl-1,4,6-triaminopyrimidinium-2-yl)thiomethyl]-3-cephem-4-carboxylate]	2 (≈ 3.2 µM)	4 (≈ 6.4 µM)	128 (≈ 205 µM)	0.5 (≈ 0.8 µM)	0.13 (≈ 0.208 µM)	2 (≈ 3.2 µM)	0.063 (≈ 0.101 µM)	0.063 (≈ 0.101 µM)	0.063 (≈ 0.101 µM)	0.063 (≈ 0.101 µM)	0.5 (≈ 0.8 µM)	≤ 0.008	0.031 (≈ 0.0496 µM)	0.063 (≈ 0.101 µM)	≤ 0.008	2 (≈ 3.2 µM)	2 (≈ 3.2 µM)	2 (≈ 3.2 µM)	0.25 (≈ 0.4 µM)	0.13 (≈ 0.208 µM)	MIC [21]: 0.031 µg/mL (≈ 0.0496 µM); MIC [22]: 0.063 µg/mL (≈ 0.101 µM); MIC [23]: 4 µg/mL (≈ 6.4 µM); MIC [24]: 2 µg/mL (≈ 3.2 µM); MIC [25]: > 128 µg/mL; LD50 at 336 h [26]: > 5000 mg/kg
CC[n+]1c(N)cc(N)nc1SCC1=C(C(=O)[O-])N2C(=O)C(NC(=O)/C(=N\O[C@@H](C)C(=O)O)c3csc(N)n3)[C@H]2SC1 (stereo partly drawn) [I-S-3, 7[(Z)-2-(2-aminothiazol-4-yl)-2[(S)-1-carboxyeth-1-oxyimino]acetamido]-3-[(4,6-diamino-1-ethylpyrimidinium-2-yl)thiomethyl]-3-cephem-4-carboxylate]	1 (≈ 1.6 µM)	4 (≈ 6.41 µM)	32 (≈ 51.3 µM)	0.25 (≈ 0.401 µM)	0.031 (≈ 0.0497 µM)	1 (≈ 1.6 µM)	≤ 0.008	0.031 (≈ 0.0497 µM)	0.031 (≈ 0.0497 µM)	0.031 (≈ 0.0497 µM)	0.25 (≈ 0.401 µM)	≤ 0.008	0.031 (≈ 0.0497 µM)	0.031 (≈ 0.0497 µM)	≤ 0.008	1 (≈ 1.6 µM)	2 (≈ 3.21 µM)	1 (≈ 1.6 µM)	0.13 (≈ 0.208 µM)	0.063 (≈ 0.101 µM)	MIC [21]: 0.016 µg/mL (≈ 0.0257 µM); MIC [22]: 0.063 µg/mL (≈ 0.101 µM); MIC [23]: 2 µg/mL (≈ 3.21 µM); MIC [24]: 1 µg/mL (≈ 1.6 µM); MIC [25]: > 128 µg/mL; LD50 at 336 h [26]: > 3000 mg/kg
